Experiment [1] has as its system MCF-7 Mammary epithelial adenocarcinoma. Briefly: In vitro viability assay, CellTiterGlo. The format is cell-based, human. The following applies: for EC50: Homo sapiens, MCF7, 72 h, read-out: EC50 (μM) Ab; for Top Inhibition (%): MCF-7, CellTiterGlo, 72 h. Here is the method:
(§1) In vitro viability assay was performed to assess the effects of compounds on cell viability in selected cell lines over 72 h using the CellTiterGlo (CTG, Promega-G7573) assay. The tests were performed in duplicates with treatment of compounds at 9 points, 3.16 folds titration in 96 well plates over ˜72 h. The compound starting concentrations were […]. Cell viability assay using CellTiterGlo in 96-well plate were performed. Compounds were dissolved to 40 mM with thawed 100% DMSO. Compounds were serially diluted at 3.16-fold in thawed DMSO, and warmed to 37° C. before being dissolved in media (2 μl+200 μl). After compounds were dissolved in media, media containing compounds were warmed to 37° C. in incubator and then compounds in media were added to cell plates (50 μl+50 μl) in duplicates. The compounds' final concentrations were from 198 μM to 19.9 nM. Solubility of all compounds was checked and recorded again, then the plates were transferred to CO2 tissue culture incubator immediately and incubated for 3 days. DMSO final concentration is 0.5%.
On the technique in general: ATP-based viability assays read luminescence as a measure of living cells.

The subject of experiment [2] is RL Non-Hodgkin's lymphoma. As to the kind of experiment: In vitro viability assay, CellTiterGlo. The format is cell-based. The note with it: 72 h; for Top Inhibition (%): CellTiterGlo; for EC50: Homo sapiens, read-out: EC50 (μM) Ab. On the procedure:
as §1

In experiment [3] the test system is HEL92.1.7 Erythroleukaemia. Briefly: In vitro viability assay, CellTiterGlo. The format is cell-based. The following applies: for Top Inhibition (%): HEL92.1.7, CellTiterGlo, 72 h; for EC50: Homo sapiens, HEL 92.1.7, 72 h, read-out: EC50 (μM) Ab. On the procedure: as §1
In experiment [4] the test system is KG-1 Acute myelogenous leukaemia. As to the kind of experiment: In vitro viability assay, CellTiterGlo. The format is cell-based. The note with it: for EC50: Homo sapiens, KG-1, 72 h, read-out: EC50 (μM) Ab; for Top Inhibition (%): KG-1, CellTiterGlo, 72 h. Here is the method:
as §1

Experiment [5] relates to HL-60 Promyelocytic leukaemia. Briefly: In vitro viability assay, CellTiterGlo. Type of experiment: cell-based. The note with it: for Top Inhibition (%): HL-60, CellTiterGlo, 72 h; for EC50: Homo sapiens, HL-60, 72 h, read-out: EC50 (μM) Ab. On the procedure: as §1
In experiment [6] the test system is Z-138 Mantle cell lymphoma. Briefly: In vitro viability assay, CellTiterGlo. The following applies: for EC50: Homo sapiens, Z-138, 72 h, read-out: EC50 (μM) Ab; for Top Inhibition (%): Z-138, CellTiterGlo, 72 h. The format is cell-based. Here is the method:
as §1

In experiment [7] the test system is HL-60. As to the kind of experiment: In vitro cytotoxicity, MTS assay. The format is cell-based. The note with it: Homo sapiens, 72 h, read-out: Inhibitory concentration (IC50) HL-60. Here is the method: (§2) Cladribine phosphoramidate derivatives were evaluated against six leukaemic cell lines (KG1, U937, K562, NB4R2, NB4 and HL-60) in vitro. Inhibitory concentration (IC50) at which 50% of the cells were no longer viable (calculated using MTS assay) was determined. Cells were treated with Cladribine and its 3′-phosphoramidate derivatives at concentrations between 100 μM and 0.02 μM by serial dilutions and incubated for 72 h at 37° C., 5% CO2 in a final volume of 90 μL. Twenty microliters of MTS reagent (Promega UK Ltd, Southampton, Hants) was added to the tumour cell cultures and reaction incubated for a further 4 h at 37° C., 5% CO2. The absorbance of the reaction after this time was read by spectrophotometry at 490 nm and the percentage of viable cells calculated relative to untreated control cells in the same assay.

Experiment [8] deals with NB4. Briefly: In vitro cytotoxicity, MTS assay. The format is cell-based. The following applies: Homo sapiens, NB-4, 72 h, read-out: Inhibitory concentration (IC50) NB4. Here is the method:
as §2

Experiment [9] deals with leukaemic stem cell compartment (Lin-/CD34+/CD38-/CD123+) within the KG1a cell line. Briefly: Immunophenotypic identification of the leukaemic stem cell compartment. The format is cell-based. The following applies: for Stem cell %: 72 h, LSC phenotype as percentage of all viable cells left, Control: 4%. On the procedure: A further comparative analysis of the toxicity of compounds in the KG1a cell line over an extended dose range was carried out, and the relative effect assessed of the compounds on the leukaemic stem cell compartment within the KG1a cell line, across the entire dose range. Thus, experimental tests were performed on certain compounds of the present invention to assess their ability to target cancer stem cells in a leukaemic cell line. The acute myeloid leukaemia (AML) cell line, KG1a, was employed to assess the relative effect of compounds on the stem cell compartment. The KG1a cell line was selected because it manifests a minor stem cell-like compartment with a distinct immunophenotype (Lin^−/CD34^+/CD38^−/CD123^+).
(§3) Cells of the KG1a cell line were maintained in RPMI medium (Invitrogen, Paisley, UK) supplemented with 100 units/ml penicillin, 100 μg/ml streptomycin and 20% foetal calf serum. Cells were subsequently aliquoted (10^5 cells/100 μl) into 96-well plates and were incubated at 37° C. in a humidified 5% carbon dioxide atmosphere for 72 h in the presence of nucleoside analogues and their respective phosphoramidates at concentrations that were experimentally determined for each series of compounds. In addition, control cultures were carried out to which no drug was added. Cells were subsequently harvested by centrifugation and were analyzed by flow cytometry using the Annexin V assay.
KG1a cells were cultured for 72 h in the presence of a wide range of concentrations of each compound assayed. Cells were then harvested and labelled with a cocktail of anti-lineage antibodies (PE-cy7), anti-CD34 (FITC), anti-CD38 (PE) and anti-CD123 (PERCP cy5). The sub-population expressing a leukaemic stem cell (LSC) phenotype were subsequently identified and were expressed as a percentage of all viable cells left in the culture. […]

Experiment [10] concerns K562. As to the kind of experiment: In vitro cytotoxicity, MTS assay. The format is cell-based. The note with it: Homo sapiens, 72 h, read-out: Inhibitory concentration (IC50) K562. On the procedure: as §2
For orientation: Tetrazolium assays rely on reduction of a dye to a coloured formazan, in cell work by metabolically active cells.

For experiment [11], the system named is U937. Briefly: In vitro cytotoxicity, MTS assay. The format is cell-based. The note with it: Homo sapiens, U-937, 72 h, read-out: Inhibitory concentration (IC50) U937. Here is the method: as §2
Experiment [12] deals with KG1. Briefly: In vitro cytotoxicity, MTS assay. The note with it: Homo sapiens, KG-1, 72 h, read-out: Inhibitory concentration (IC50) KG1. The format is cell-based. Here is the method: as §2
The test system of experiment [13] is NB4R2. Briefly: In vitro cytotoxicity, MTS assay. The format is cell-based. The note with it: 72 h, read-out: Inhibitory concentration (IC50) NB4R2. On the procedure:
as §2

The subject of experiment [14] is KG1a cell line. As to the kind of experiment: Annexin V/propidium iodide apoptosis assay. Type of experiment: cell-based. The following applies: 72 h, dose required to kill 50% of the cells. Here is the method: as §3
Measurement of in vitro apoptosis. Cultured cells were harvested by centrifugation and then resuspended in 195 μl of calcium-rich buffer. Subsequently, 5 μl of Annexin V (Caltag Medsystems, Botolph Claydon, UK) was added to the cell suspension and cells were incubated in the dark for 10 mins prior to washing. Cells were finally resuspended in 190 μl of calcium-rich buffer together with 10 μl of propidium iodide. Apoptosis was assessed by dual-colour immunofluorescent flow cytometry as described previously. Subsequently LD50 values (the dose required to kill 50% of the cells in a culture) were calculated for each nucleoside analogue and phosphoramidate.
The data obtained in these experiments were evaluated using one way ANOVA. All data was confirmed as Gaussian or a Gaussian approximation using the omnibus K2 test. LD50 values were calculated from the non-linear regression and line of best-fit analysis of the sigmoidal dose-response curves. All statistical analyses were performed using Graphpad Prism 6.0 software (Graphpad Software Inc., San Diego, Calif.).

The test system of experiment [15] is MCF7 cells infected with Mycoplasma hyorhnis (HYOR). Briefly: Cytostatic activity in mycoplasma-infected cells. The format is cell-based, human. The note with it: for IC50: Homo sapiens, MCF7, 72 h, read-out: IC50 MCF7/HYOR; for Loss of potency: MCF7/HYOR versus MCF7. An excerpt:
(§4) Tumor cell cultures were infected with M. hyorhinis (ATCC 17981) and after two or more passages (to avoid bias by the initial inoculum) successful infection was confirmed using the MycoAlert™ mycoplasma detection kit (Lonza, Basel, Switzerland). Although this assay is only semi-quantitative, a maximal infection was observed 3 to 4 days after subcultivation of the mycoplasma-exposed cells. Chronically infected tumor cell lines are further referred to as Cell line.Hyor. All tumor cell cultures were maintained in Dulbecco's modified Eagle's medium (DMEM) (Invitrogen) supplemented with 10% fetal bovine serum (Biochrom AG, Berlin, Germany), 10 mm HEPES, and 1 mm sodium pyruvate (Invitrogen). Cells were grown at 37° C. in a humidified incubator with a gas phase containing 5% CO2.
(§5) The cytostatic activity of the test compounds was examined in mycoplasma-infected and uninfected cancer cell lines. When assaying the effect of M. hyorhinis infection, monolayer MCF7 and MCF7.Hyor cells were seeded in 48-well microtiter plates (Nunc™, Roskilde, Denmark) at 10,000 cells/well (Corning Inc., Corning, N.Y.) […]. After 24 h, the cells were exposed to different concentrations of test compound and allowed to proliferate for 72 h (to ensure sufficient cell proliferation and mycoplasma growth) after which the cells were trypsinized and counted using a Coulter counter (Analis, Suarlée, Belgium). Suspension cells (L1210, L1210.Hyor, FM3A, and FM3A.Hyor) were seeded in 96-well microtiter plates (Nunc) at 60,000 cells/well in the presence of different concentrations of test compound. The cells were allowed to proliferate for 48 h and then counted using a Coulter counter. The 50% inhibitory concentration (IC50) was defined as the compound concentration required to reduce cell proliferation by 50%.

The test system of experiment [16] is MCF7. Briefly: Cytostatic activity, cell counting (Coulter counter). The following applies: Homo sapiens, MCF7, 72 h, read-out: IC50 MCF7. The format is cell-based.
Text: as §4, §5

Usually EC50 stands for the midpoint of the concentration-response curve.

As for `C[C@H](NP(=O)(Oc1ccccc1)OC1C[C@H](n2cnc3c(N)nc(Cl)nc32)O[C@@H]1CO)C(=O)OC1CCCCC1` (stereo partly drawn) [Compound 9, 2-Chloro-2′-deoxyadenosine-3′-[phenyl-(cyclohexoxy-L-alaninyl)] phosphate], the EC50 in experiment [1] was 21 µM; in experiment [2], 0.14 µM; in experiment [3], 0.044 µM; in [4] it was 0.8 µM; in [5] it was 0.13 µM; in experiment [6], 0.051 µM. For the same molecule, the “Top Inhibition (%)” value in experiment [1] is on record as 100%; in experiment [2], 89.9%; in [3], 97.2%; in experiment [4], 96.9%; in [5] it was 87.7%; in [6], 99.9%.
As for `C[C@H](NP(=O)(Oc1ccccc1)OC1C[C@H](n2cnc3c(N)nc(Cl)nc32)O[C@@H]1CO)C(=O)OCC(C)(C)C` (stereo partly drawn) [Compound 10, 2-Chloro-2′-deoxyadenosine-3′-[phenyl-(2,2-dimethylpropoxy-L-alaninyl)] phosphate], the EC50 was 22 µM in [1]; 0.15 µM in [2]; 0.042 µM in experiment [3]; 0.6 µM in experiment [4]; 0.12 µM in [5]; 0.047 µM in experiment [6]. The “Top Inhibition (%)” value is 99.2% in experiment [1]; 89.8% in [2]; 97.2% in experiment [3]; 95% in experiment [4]; 87.7% in experiment [5]; 100% in experiment [6]. Besides, the IC50 in experiment [7] was 5300 nM; in experiment [8], above 10000 nM.
Regarding `C[C@H](NP(=O)(Oc1cccc2ccccc12)OC1C[C@H](n2cnc3c(N)nc(Cl)nc32)O[C@@H]1CO)C(=O)OCc1ccccc1` (some centres unmarked) [Compound 18], the stem cell selectivity result in experiment [9] was “exhibited stem cell selectivity”. Besides, the “targeting of LSCs when compared to cladribine” value in experiment [9] is “showed preferential targeting of LSCs”. Further, the Stem cell % in [9] came out at 4%. The IC50 turned out to be 5140 nM in experiment [10]; 10 nM in experiment [11]; 390 nM in [7]; 310 nM in experiment [12]; 1290 nM in experiment [13]; 70 nM in [8]. The LD50 in experiment [14] is 0.27 μm.
For the molecule `C[C@H](NP(=O)(Oc1ccccc1)OC1C[C@H](n2cnc3c(N)nc(Cl)nc32)O[C@@H]1CO)C(=O)OCc1ccccc1` (some centres unmarked) [Compound 19], the IC50 was 26000 nM in experiment [15]; 5200 nM in [16]; above 10000 nM in experiment [10]; 30 nM in experiment [11]; 100 nM in experiment [7]; 380 nM in experiment [12]. Further, the IC50 in experiment [13] was 110 nM; in experiment [8], 240 nM. In addition, the Loss of potency in experiment [15] was 5-fold. Besides, in experiment [9], the stem cell selectivity result is recorded as “exhibited stem cell selectivity”. This molecule returned a Stem cell % in experiment [9] of 3.1%. This molecule gave an LD50 in experiment [14] of 0.83 μm.
Take `C[C@H](NP(=O)(OC[C@H]1O[C@@H](n2cnc3c(N)nc(Cl)nc32)CC1O)Oc1ccccc1)C(=O)OCc1ccccc1` (some centres unmarked) [Y, reference compound]: the IC50 in [15] is 33000 nM; in [16] it was 2100 nM; in experiment [10] it was 8050 nM; in experiment [11], 80 nM; in experiment [7], 1750 nM; in experiment [12] it was 670 nM. The IC50 in experiment [13] came out at 630 nM; in experiment [8], 230 nM. The Loss of potency in [15] is 16-fold. This molecule also showed a Stem cell % in [9] of 2%. This molecule gave an LD50 in experiment [14] of 1.7 μm.

For the origin of these results see patent US10906929B2, “Phosphoramidate nucleoside derivatives as anticancer agents” (NuCana plc, priority 2016, dated 2021).
